Source: publication PMC9226319, “Peripherally restricted transthyretin-based delivery system for probes and therapeutics avoiding opioid-related side effects” (Nature Communications, 2022)
Where “and” joins values, the source holds several entries; their conditions need not be identical. Identical values can stand only once. Like-named read-outs stand apart in the source and are kept apart here.

Assays:
purified human TTR = purified human TTR (Homo sapiens, UniProt P02766); assay: Fluorescence polarization (FP) binding assay, ligands to TTR in buffer
TTR in human serum = TTR in human serum (Homo sapiens, UniProt P02766); assay: TTR serum fluorescent probe exclusion (FPE) selectivity assay; assay type: binding; conditions: ligand 10 µM; for %FPE probe fluorescence: human serum, replicates
holo-RBP-TTR interaction = holo-RBP-TTR interaction (Homo sapiens, UniProt P02766); assay: Effect on holo-RBP-TTR interaction in human serum (cross-linking, Western blot); conditions: human serum, quantified from gel image, replicates (Supp Fig.14b)
male Sprague-Dawley rats = conditions: cited from earlier work
[1] = molecular target: human mu-opioid receptors (Homo sapiens, UniProt P35372); conditions: cited from earlier work
human mu-opioid receptors, sequence (P35372 whole entry): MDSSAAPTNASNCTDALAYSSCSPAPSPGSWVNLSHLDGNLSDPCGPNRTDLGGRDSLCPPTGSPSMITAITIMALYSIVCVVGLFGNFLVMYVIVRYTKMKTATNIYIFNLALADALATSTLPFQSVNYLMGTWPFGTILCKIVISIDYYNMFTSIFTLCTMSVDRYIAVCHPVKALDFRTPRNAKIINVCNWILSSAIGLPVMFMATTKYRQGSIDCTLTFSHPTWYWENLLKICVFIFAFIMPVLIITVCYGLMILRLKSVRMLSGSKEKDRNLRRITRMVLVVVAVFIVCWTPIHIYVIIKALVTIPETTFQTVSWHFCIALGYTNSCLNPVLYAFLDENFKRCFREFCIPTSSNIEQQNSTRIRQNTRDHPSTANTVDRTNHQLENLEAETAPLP

**Q.** Which results are given for `Cc1n[nH]c(C)c1CCCOc1cc(OCCCCCCN)cc(C(=O)O)c1` [Compound 1]?
**A.** Kd (purified human TTR; FP assay, Kd from IC50 by Cheng-Prusoff, read-out: binding affinity to TTR in buffer (Kd)): 68.5 nM; % Fluorescence polarization (mean) (purified human TTR; log [nM] inhibitor 0.990): 100.000%; % Fluorescence polarization (mean) (purified human TTR; log [nM] inhibitor 1.291): 100.180%; % Fluorescence polarization (mean) (purified human TTR; log [nM] inhibitor 1.592): 101.890%; % Fluorescence polarization (mean) (purified human TTR; log [nM] inhibitor 1.893): 93.660%; % Fluorescence polarization (mean) (purified human TTR; log [nM] inhibitor 2.194): 79.820%; % Fluorescence polarization (mean) (purified human TTR; log [nM] inhibitor 2.495): 50.610%; % Fluorescence polarization (mean) (purified human TTR; log [nM] inhibitor 2.796): 29.820%; % Fluorescence polarization (mean) (purified human TTR; log [nM] inhibitor 3.097): 10.200%; % Fluorescence polarization (mean) (purified human TTR; log [nM] inhibitor 3.398): 5.680%; % Fluorescence polarization (mean) (purified human TTR; log [nM] inhibitor 3.699): 2.100%; % Fluorescence polarization (mean) (purified human TTR; log [nM] inhibitor 4.000): 0.000%; % Fluorescence polarization (mean) (purified human TTR; log [nM] inhibitor […]): 0.000%; % TTR occupancy in human serum (TTR in human serum; FPE probe 3.6 µM, 3 h reading relative to probe alone, text mean ± s.d., table replicates): 80.97% and 81.01% and 82.98% and 80.85%; %FPE probe fluorescence (TTR in human serum; time 0.000 h): 0.000%; %FPE probe fluorescence (TTR in human serum; time 0.083 h): 1.647% and 2.385% and -0.604% and 3.064%; %FPE probe fluorescence (TTR in human serum; time 0.250 h): 1.886% and 5.252% and 4.502% and 2.159%; %FPE probe fluorescence (TTR in human serum; time 0.500 h): 6.344% and 5.631% and 7.192% and 4.320%; %FPE probe fluorescence (TTR in human serum; time 1.000 h): 3.308% and 7.416% and 10.395% and 10.953%; %FPE probe fluorescence (TTR in human serum; time 1.250 h): 4.585% and 8.580% and 11.565% and 11.702%; %FPE probe fluorescence (TTR in human serum; time 1.500 h): 7.132% and 12.681% and 12.080% and 11.106%; %FPE probe fluorescence (TTR in human serum; time 1.750 h): 8.769% and 12.456% and 13.547% and 12.819%; %FPE probe fluorescence (TTR in human serum; time 2.000 h): 10.680% and 14.441% and 12.622% and 13.836%; %FPE probe fluorescence (TTR in human serum; time 2.250 h): 13.720% and 16.433% and 14.485% and 14.975%; %FPE probe fluorescence (TTR in human serum; time 2.500 h): 13.664% and 19.254% and 16.706% and 17.421%; %FPE probe fluorescence (TTR in human serum; time 2.750 h): 17.610% and 18.428% and 15.401% and 17.419%; %FPE probe fluorescence (TTR in human serum; time 3.000 h): 19.032% and 18.994% and 17.022% and 19.151%; %FPE probe fluorescence (TTR in human serum; time 3.500 h): 21.344% and 21.727% and 19.004% and 22.809%; %FPE probe fluorescence (TTR in human serum; time 3.750 h): 22.381% and 21.465% and 19.735% and 21.684%; %FPE probe fluorescence (TTR in human serum; time 4.000 h): 24.245% and 24.044% and 22.333% and 25.118%; %FPE probe fluorescence (TTR in human serum; time 4.250 h): 24.067% and 25.243% and 24.565% and 26.782%; %FPE probe fluorescence (TTR in human serum; time 4.500 h): 26.784% and 27.018% and 26.091% and 25.883%; %FPE probe fluorescence (TTR in human serum; time 4.750 h): 28.232% and 25.575% and 25.168% and 25.868%; %FPE probe fluorescence (TTR in human serum; time 5.000 h): 29.310% and 28.226% and 25.991% and 29.486%; %FPE probe fluorescence (TTR in human serum; time 5.250 h): 29.376% and 30.191% and 26.180% and 29.320%; %FPE probe fluorescence (TTR in human serum; time 5.500 h): 30.897% and 29.807% and 29.795% and 31.357%; %FPE probe fluorescence (TTR in human serum; time 5.750 h): 32.177% and 31.200% and 28.228% and 32.379%; %FPE probe fluorescence (TTR in human serum; time 6.000 h): 33.601% and 32.676% and 30.907% and 33.191%; %holo RBP binding to TTR (holo-RBP-TTR interaction): 8% and 6.2% and 5.8%

**Q.** Which results are given for `CN(C)C(=O)C(CCN1CCC(O)(c2ccc(Cl)cc2)CC1)(c1ccccc1)c1ccccc1` [Loperamide]?
**A.** GI transit (male Sprague-Dawley rats; 30 mg/kg): 30%; GI transit (male Sprague-Dawley rats; subcutaneous 1 mg/kg): 50%; ED50 for inducing constipation (male Sprague-Dawley rats; subcutaneous): 1 mg/kg

**Q.** With `C[N+]1(CC2CC2)CC[C@]23c4c5ccc(O)c4O[C@H]2C(=O)CC[C@@]3(O)[C@H]1C5` (some centres unmarked) [MNTX] as the compound, how does the “affinity for the mu-opioid receptors as % of naltrexone” value [1] read?
**A.** 1%

**Q.** What about the Ki ([1]; read-out: binding affinity to mu-opioid receptor (Ki)) of the same compound?
**A.** 22.1 nM
